Data: PubChem BioAssay AID1549 (Sanford-Burnham Center for Chemical Genomics, 2009)
Activity calls are given as the source filed them. No rule for the calls is given here.

Target: Influenza A virus M2 proton channel (A/TW/4845/1999 H1N1)
Experiment: NMR binding screen, influenza A virus M2 proton channel, Kd (AID 1549)
Conditions: M2 protein

SMILES	Kd
COc1c(-c2coc3cc4c(cc3c2=O)CC(OC(C)=O)C(C)(C)O4)ccc2c1C=CC(C)(C)O2 (configuration not stated)	> 4 mM (inactive)
COc1ccc(C(C)=O)c(OC)c1	> 4 mM (inactive)
CSc1ccc(C(=S)N2CCN(C)CC2)cc1	> 4 mM (inactive)
CCOc1cc(C)c(Cl)cc1S(=O)(=O)N(C)C	> 4 mM (inactive)
CC1=NN(C(N)=S)C(C)(C)C1	> 4 mM (inactive)
c1ccc(C[N+]23CCN(CC2)c2ccccc23)cc1	> 4 mM (inactive)
Cc1cc(C(=O)N2CCN(c3ccccn3)CC2)no1	> 4 mM (inactive)
N#CCSc1nc(-c2ccccc2)cs1	> 4 mM (inactive)
CC(=O)Nc1nc2c(s1)C(=O)NCCC2	> 4 mM (inactive)
CCOC(=O)C1CCNCC1	> 4 mM (inactive)
NS(=O)(=O)c1ccc(N2CCCC2=O)cc1	> 4 mM (inactive)
O=c1cc(-c2ccc(O)cc2)oc2cc(O)cc(O)c12	> 4 mM (inactive)
COc1ccccc1CNc1nc2nc(C)cc(=O)n2[nH]1	> 4 mM (inactive)
S=c1nc(Cc2ccccc2)[nH][nH]1	> 4 mM (inactive)
O=C1CC(C(=O)O)c2ccccc21 (configuration not stated)	> 4 mM (inactive)
O=C1C2CC=CCC2C(=O)N1c1ccccc1O (configuration not stated)	> 4 mM (inactive)
Clc1ccc2c(N3CCNCC3)ccnc2c1	> 4 mM (inactive)
COc1cc(OC)c2c(c1Cl)OC1(C2=O)C(O)=CC(=O)CC1C (configuration not stated)	> 4 mM (inactive)
O=C(O)C1CC(=O)N(Cc2ccc(F)cc2)C1 (configuration not stated)	> 4 mM (inactive)
O=C1CNC(=O)N1Cc1ccc(F)cc1	> 4 mM (inactive)
COc1ccc(-c2nnc(-c3ccc(N)cc3)o2)cc1	> 4 mM (inactive)
OCc1ccc(CN2CCOCC2)cc1	> 4 mM (inactive)
Nn1c(CN2CCCCC2)nc2ccccc2c1=O	> 4 mM (inactive)
NC(=O)c1ccsc1NC(=O)c1cccnc1	> 4 mM (inactive)
O=C(c1ccccc1)N1CCNCC1	> 4 mM (inactive)
Cn1c(SCc2ccon2)nc2ccccc2c1=O	> 4 mM (inactive)

SMILES	Kd
O=C(O)CCC(=O)Nc1nccs1	> 4 mM (inactive)
O=c1c2ccccc2nc2n1CCC2O (configuration not stated)	> 4 mM (inactive)
Cc1ccccc1NC(=O)C1CCC(=O)N1 (configuration not stated)	> 4 mM (inactive)
Oc1ccc(C(=S)N2CCCCC2)cc1Cl	> 4 mM (inactive)
Cn1cnc2nc3n(c2c1=O)CCC3	> 4 mM (inactive)
NC(=O)Cn1nnc(-c2ccc(C(F)(F)F)cc2)n1	> 4 mM (inactive)
O=C1C(=O)N(CNc2ncccn2)c2ccccc21	> 4 mM (inactive)
Cc1ccc(C(=O)Nc2ccncc2)o1	> 4 mM (inactive)
Cc1c(CCO)c(=O)n2c([nH]c3ccccc32)c1C#N	> 4 mM (inactive)
CSc1nsc(SCc2cnc(C)nc2N)n1	> 4 mM (inactive)
Cc1cc(C)c(C(N)=O)c(=S)[nH]1	> 4 mM (inactive)
OCc1ccc(-n2cccn2)cc1	> 4 mM (inactive)
Cc1sc2nc(NCCO)[nH]c(=O)c2c1C	> 4 mM (inactive)
CCSc1n[nH]c(=O)[nH]c1=O	> 4 mM (inactive)
COc1ccc(NC(=O)C(N)=O)cc1Cl	> 4 mM (inactive)
NC1=NC(=O)/C(=C/c2cccs2)S1	> 4 mM (inactive)
NCc1ccc(N2CCOCC2)cc1	> 4 mM (inactive)
C=C(C)[C@H]1CC=C(C(=O)O)CC1	> 4 mM (inactive)
NC1=NC(=O)CC(C(=O)Nc2ccccc2)S1 (configuration not stated)	> 4 mM (inactive)
COc1ccc(NS(=O)(=O)c2ccc(N)cc2)nn1	> 4 mM (inactive)
COc1ccc(-c2cc(=O)c3c(OC(C)=O)cc(OC(C)=O)cc3o2)cc1	> 4 mM (inactive)
CS(=O)(=O)CCCCN=C=S	> 4 mM (inactive)
O=C(NC1=NCCS1)c1ccc(Cl)s1	> 4 mM (inactive)
O=C(O)CCN1CCOCC1	> 4 mM (inactive)
O=C1c2ccccc2C(=O)N1Cc1ccco1	> 4 mM (inactive)
O=C1CCC(=O)N1c1cccc([N+](=O)[O-])c1	> 4 mM (inactive)

SMILES	Kd
CCc1ccc(C(=O)N2CCCC2)s1	> 4 mM (inactive)
NC(=O)Cc1nc(-c2ccccc2)cs1	> 4 mM (inactive)
O=C(O)CCS(=O)(=O)c1ccccc1	> 4 mM (inactive)
COc1ccc(-c2coc3c(O)c(OC)ccc3c2=O)cc1	> 4 mM (inactive)
CN(C)C(=S)Nc1nc2ccccc2s1	> 4 mM (inactive)
NC(=O)C1CCN(Cc2ccccc2)CC1	> 4 mM (inactive)
Cc1cc(N(CN2CCCC2=O)C(=O)c2ccccc2)no1	> 4 mM (inactive)
c1ccc(Cc2nnc3sc(-c4cccnc4)nn23)cc1	> 4 mM (inactive)
Cn1c2ccccc2n2c(=S)[nH]nc12	> 4 mM (inactive)
O=C(Nc1ccncc1)Nc1ccc(F)cc1F	> 4 mM (inactive)
CCCSc1nnc2[nH]c(=O)cc(N)n12	> 4 mM (inactive)
O=C(CO)N/N=C/c1ccccc1F	> 4 mM (inactive)
S=c1[nH]cnc2sccc12	> 4 mM (inactive)
O=C1C2C3C=CC(C3)C2C(=O)N1c1nccs1 (configuration not stated)	> 4 mM (inactive)
Cc1cc(C(=O)Nc2sc(C)c(C)c2C#N)c(C)o1	> 4 mM (inactive)
CC(=O)Nc1ccc(NC(=O)c2ccncc2)cc1	> 4 mM (inactive)
O=C(O)c1ncoc1-c1ccccc1	> 4 mM (inactive)
CNc1nnc(Cc2csc(N)n2)s1	> 4 mM (inactive)
O=C1NC(=O)C2C3C=CC(O3)C12 (configuration not stated)	> 4 mM (inactive)
O=C(O)Cn1cc(C(=O)C2CC2)c2ccccc21	> 4 mM (inactive)
O=C(NCc1ccccn1)c1ccc(Br)s1	> 4 mM (inactive)
COc1ccccc1Nc1nncc(=O)[nH]1	> 4 mM (inactive)
CNC(=O)Cn1c(=O)n(C)c2ccccc21	> 4 mM (inactive)
O=S1(=O)CCC(N2CCCCC2)C1 (configuration not stated)	> 4 mM (inactive)
CCN1C(=O)c2cccc3c(S(N)(=O)=O)ccc1c23	> 4 mM (inactive)
O=C(CCc1ccc(O)cc1)c1c(O)cc(O)cc1O[C@@H]1O[C@H](CO)[C@@H](O)[C@H](O)[C@H]1O	> 4 mM (inactive)

SMILES	Kd
COc1ccccc1-c1nc(-c2ccc(C)nc2OC)no1	> 4 mM (inactive)
O=c1cnnc(N2CCCCC2)[nH]1	> 4 mM (inactive)
C/C=C/C=N/NC(=O)c1ccc(=O)n(C)c1	> 4 mM (inactive)
Cc1cc(=O)c2c(O)c(C)c(O)cc2o1	> 4 mM (inactive)
Nc1ncc2[nH]cnc2n1	> 4 mM (inactive)
O=C(O)c1ccc2sccc2c1	> 4 mM (inactive)
CC1SC(=NC(=O)c2ccco2)NC1=O (configuration not stated)	> 4 mM (inactive)
Cc1ccc(S(=O)(=O)CC(N)=O)cc1	> 4 mM (inactive)
COC(=O)c1ccc(NC(=O)CC2NCCNC2=O)cc1 (configuration not stated)	> 4 mM (inactive)
CS(=O)(=O)Cc1ccccc1	> 4 mM (inactive)
Cn1c(=O)cc(N2CCCCC2)[nH]c1=O	> 4 mM (inactive)
CSc1ccc(/C=N/n2c(C)nnc2C)cc1	> 4 mM (inactive)
NS(=O)(=O)c1ccc(N=Cc2cccs2)cc1	> 4 mM (inactive)
COc1ccc(-c2c(C)n([O-])c(C)c(C)[n+]2=O)cc1	> 4 mM (inactive)
Cc1cc(=O)n(CCc2ccccc2)c(O)c1C#N	> 4 mM (inactive)
Cc1cc2nc(SCC(=O)O)nc(C)c2cc1C	> 4 mM (inactive)
O=C(O)c1cc2ccccc2s1	> 4 mM (inactive)
CC(=O)Oc1ccc(-c2cc(=O)c3c(OC(C)=O)cc(OC(C)=O)cc3o2)cc1	> 4 mM (inactive)
C[C@H]1[C@H]2CCC3C4CC=C5C[C@@H](N(C)C)CC[C@]5(C)C4CC[C@@]32CN1C (some centres not stated)	> 4 mM (inactive)
c1cncc(-c2nnc(-c3cccnc3)nn2)c1	> 4 mM (inactive)
O=c1[nH]cc(CN2CCOCC2)c(=O)[nH]1	> 4 mM (inactive)
Cc1cc(C)cc(C(=O)N2CCC(C(N)=O)CC2)c1	> 4 mM (inactive)
COc1cccc(NC(=O)c2nc3ncccn3n2)c1	> 4 mM (inactive)
Cc1cc(=O)[nH]c(N)n1	> 4 mM (inactive)
O=C1c2ccncc2C(=O)N1CO	> 4 mM (inactive)
NC(=S)CN1CCCC1=O	> 4 mM (inactive)

SMILES	Kd
Nc1cccc2nonc12	> 4 mM (inactive)
Cc1cn2c(-c3cccnc3)nnc2s1	> 4 mM (inactive)
O=C(NCc1n[nH]c(=O)c2ccccc12)C1CC1	> 4 mM (inactive)
CC1=CC(=O)NC2C=CC=CC12 (configuration not stated)	> 4 mM (inactive)
O=c1c(-c2ccco2)[n+]([O-])c2ccccc2n1O	> 4 mM (inactive)
O=C1CSC(=NC(=O)c2ccccc2)N1	> 4 mM (inactive)
C=CC(C1=CC(=O)C=CC1=O)c1ccccc1 (configuration not stated)	> 4 mM (inactive)
O=C(NCc1cccnc1)c1ccccn1	> 4 mM (inactive)
O=C1CCC(=O)N1CN1CCOCC1	> 4 mM (inactive)
OCC(O)Cc1ccc2c(c1)OCO2 (configuration not stated)	> 4 mM (inactive)
CC(=O)OC1CCC2(C)C(=CC=C3C2CCC2(C)C3CCC2C(C)/C=C/C(C)C(C)C)C1(C)C (configuration not stated)	> 4 mM (inactive)
Cc1cc(C)nc(/N=C(\N)N2CCc3ccccc32)n1	> 4 mM (inactive)
OCc1ccc2c(c1)CCO2	> 4 mM (inactive)
Cc1cc(CN2C(=O)c3ccccc3C2=O)on1	> 4 mM (inactive)
O=C1NC(=S)NC(=O)C1=Cc1ccccc1O	> 4 mM (inactive)
Cc1nn2c(=O)/c(=C/c3cccc(F)c3)sc2nc1=O	> 4 mM (inactive)
O=C(c1cccnc1Cl)N1CCOCC1	> 4 mM (inactive)
O=C(O)Cn1cc(C(=O)c2cccs2)c2ccccc21	> 4 mM (inactive)
O=C(O)CSc1nnc(-c2cccs2)o1	> 4 mM (inactive)
O=C1CSC(=S)N1N1C(=O)C2C3C=CC(C3)C2C1=O (configuration not stated)	> 4 mM (inactive)
CNC(=O)C1CC(=O)N(c2ccc(O)cc2)C1 (configuration not stated)	> 4 mM (inactive)
Nc1cccc(OC(F)(F)F)c1	> 4 mM (inactive)
Cc1nc2ccc(F)cc2cc1C(=O)NCc1ccco1	> 4 mM (inactive)
